# Test results reported in patent US20230339916A1, “PLANT GROWTH REGULATOR COMPOUNDS” (SYNGENTA CROP PROTECTION AG, priority 2020, published 2023).
# Test system: Corn leaf discs (variety Multitop)
# Test: Dark induced senescence of corn leaf
# Type: in vivo
# Details: Zea mays, foliar, 192 h; corn leaf discs in the dark, 23° C., 75% humidity, 8 days; 100 μM-0.0001 μM, 0.5% DMSO; image analysis; read-out: IC50 (concentration at which 50% senescence was achieved)
# Protocol: Corn plants of variety Multitop were grown in a greenhouse with relative 75% humidity and at 23-25° C. for 6 weeks. 1.4 cm diameter leaf discs were placed into 24-well plates containing test compounds in a concentration gradient (100 μM-0.0001 μM) at a final concentration of 0.5% DMSO. Each concentration was tested in 12 replicates. Plates were sealed with seal foil. The foil was pierced to provide gas exchange in each well. The plates were placed into the completely dark climatic chamber. Plates were incubated in the chamber with 75% humidity and at 23° C. for 8 days. On days 0, 5, 6, 7 and 8 photographs were taken of each plate, and image analysis conducted with a macro developed using the ImageJ software. The image analysis was used to determine the concentration at which 50% senescence was achieved (IC50), see Table 3. The lower the value, the higher senescence induction potency.
row,IC50,Compound
1,< 3 µM,"CCOC(=O)/C(=C/OC1C=C(C)C(=O)O1)n1cc(C#N)c2ccccc21 (stereo not shown) [Compound I-25-Z, ethyl (Z)-2-(3-cyanoindol-1-yl)-3-[(4-methyl-5-oxo-2H-furan-2-yl)oxy]prop-2-enoate]"
2,< 3 µM,"CNC(=O)/C(=C/OC1C=C(C)C(=O)O1)n1cc(C#N)c2ccccc21 (stereo not shown) [Compound I-82-Z, (Z)-2-(3-cyanoindol-1-yl)-N-methyl-3-[(4-methyl-5-oxo-2H-furan-2-yl)oxy]prop-2-enamide]"
3,< 3 µM,"CCOC(=O)/C(=C/OC1OC(=O)C(C)=C1OC)n1cc(C#N)c2ccccc21 (stereo not shown) [Compound I-88-Z, ethyl (Z)-2-(3-cyanoindol-1-yl)-3-[(3-methoxy-4-methyl-5-oxo-2H-furan-2-yl)oxy]prop-2-enoate]"
4,< 3 µM,"CCOC(=O)/C(=C/OC1OC(=O)C(C)=C1C)n1ccc2ccccc21 (stereo not shown) [Compound I-7-Z, ethyl (Z)-3-[(3,4-dimethyl-5-oxo-2H-furan-2-yl)oxy]-2-indol-1-yl-prop-2-enoate]"
5,< 3 µM,"CCOC(=O)/C(=C/OC1C=C(C)C(=O)O1)n1c(C)c(C)c2ccccc21 (stereo not shown) [Compound I-29-Z, ethyl (Z)-2-(2,3-dimethylindol-1-yl)-3-[(4-methyl-5-oxo-2H-furan-2-yl)oxy]prop-2-enoate]"
6,< 3 µM,"CNC(=O)/C(=C/OC1OC(=O)C(C)=C1C)n1nnc2ccccc21 (stereo not shown) [Compound I-37-Z, (Z)-2-(benzotriazol-1-yl)-3-[(3,4-dimethyl-5-oxo-2H-furan-2-yl)oxy]-N-methyl-prop-2-enamide]"
7,< 3 µM,"CCOC(=O)/C(=C/OC1C=C(C)C(=O)O1)n1nnc2ccccc21 (stereo not shown) [Compound I-31-Z, ethyl (Z)-2-(benzotriazol-1-yl)-3-[(4-methyl-5-oxo-2H-furan-2-yl)oxy]prop-2-enoate]"
8,< 3 µM,"CCOC(=O)/C(=C/OC1C=C(C)C(=O)O1)n1ccc2cncnc21 (stereo not shown) [Compound I-62-Z, ethyl (Z)-3-[(4-methyl-5-oxo-2H-furan-2-yl)oxy]-2-pyrrolo[2,3-d]pyrimidin-7-yl-prop-2-enoate]"
9,< 3 µM,"CCOC(=O)/C(=C/OC1OC(=O)C(C)=C1C)n1c(C)nc2ccccc21 (stereo not shown) [Compound I-59-Z, ethyl (Z)-3-[(3,4-dimethyl-5-oxo-2H-furan-2-yl)oxy]-2-(2-methylbenzimidazol-1-yl)prop-2-enoate]"
10,< 3 µM,"CCOC(=O)/C(=C/OC1OC(=O)C(C)=C1C)n1c(=O)oc2ccccc21 (stereo not shown) [Compound I-69-Z, ethyl (Z)-3-[(3,4-dimethyl-5-oxo-2H-furan-2-yl)oxy]-2-(2-oxo-1,3-benzoxazol-3-yl)prop-2-enoate]"
11,< 3 µM,"CCOC(=O)/C(=C/OC1C=C(C)C(=O)O1)n1cnc2ccccc21 (stereo not shown) [Compound I-56-Z, ethyl (Z)-2-(benzimidazol-1-yl)-3-[(4-methyl-5-oxo-2H-furan-2-yl)oxy]prop-2-enoate]"
12,< 3 µM,"CC1=C(C)C(O/C=C(/C#N)n2ncc3ccccc32)OC1=O (stereo not shown) [Compound I-47-Z, (Z)-3-[(3,4-dimethyl-5-oxo-2H-furan-2-yl)oxy]-2-indazol-1-yl-prop-2-enenitrile]"
13,< 3 µM,"CC1=CC(O/C=C(/C(=O)N(C)C)n2cc(C#N)c3ccccc32)OC1=O (stereo not shown) [Compound I-86-Z, (Z)-2-(3-cyanoindol-1-yl)-N,N-dimethyl-3-[(4-methyl-5-oxo-2H-furan-2-yl)oxy]prop-2-enamide]"
14,< 3 µM,"CCOC(=O)/C(=C/OC1C=C(C)C(=O)O1)n1ncc2ccccc21 (stereo not shown) [Compound I-42-Z, ethyl (Z)-2-indazol-1-yl-3-[(4-methyl-5-oxo-2H-furan-2-yl)oxy]prop-2-enoate]"
15,< 3 µM,"CCOC(=O)/C(=C/OC1OC(=O)C(C)=C1C)n1cc(C)c2ccccc21 (stereo not shown) [Compound I-28-Z, ethyl (Z)-3-[(3,4-dimethyl-5-oxo-2H-furan-2-yl)oxy]-2-(3-methylindol-1-yl)prop-2-enoate]"
16,< 3 µM,"CCOC(=O)/C(=C/OC1OC(=O)C(C)=C1C)n1ccc2cc(F)ccc21 (stereo not shown) [Compound I-9-Z, ethyl (Z)-3-[(3,4-dimethyl-5-oxo-2H-furan-2-yl)oxy]-2-(5-fluoroindol-1-yl)prop-2-enoate]"
17,< 3 µM,"CCOC(=O)/C(=C/OC1C=C(C)C(=O)O1)n1ccc2cc(F)ccc21 (stereo not shown) [Compound I-3-Z, ethyl (Z)-2-(5-fluoroindol-1-yl)-3-[(4-methyl-5-oxo-2H-furan-2-yl)oxy]prop-2-enoate]"
18,< 3 µM,"CCOC(=O)/C(=C/OC1OC(=O)C(C)=C1C)n1c(C)c(C)c2ccccc21 (stereo not shown) [Compound I-30-Z, ethyl (Z)-2-(2,3-dimethylindol-1-yl)-3-[(3,4-dimethyl-5-oxo-2H-furan-2-yl)oxy]prop-2-enoate]"
19,< 3 µM,"CCOC(=O)/C(=C/OC1OC(=O)C(C)=C1C)n1ncc2ccccc21 (stereo not shown) [Compound I-46-Z, ethyl (Z)-3-[(3,4-dimethyl-5-oxo-2H-furan-2-yl)oxy]-2-indazol-1-yl-prop-2-enoate]"

row,IC50,Compound
1,< 3 µM,"CNC(=O)/C(=C\OC1C=C(C)C(=O)O1)n1nnc2ccccc21 (stereo not shown) [Compound I-33-E, (E)-2-(benzotriazol-1-yl)-N-methyl-3-[(4-methyl-5-oxo-2H-furan-2-yl)oxy]prop-2-enamide]"
2,< 3 µM,"CCOC(=O)/C(=C/OC1C=C(C)C(=O)O1)n1ccc2cc(-c3ccccc3)ccc21 (stereo not shown) [Compound I-5-Z, ethyl (Z)-3-[(4-methyl-5-oxo-2H-furan-2-yl)oxy]-2-(5-phenylindol-1-yl)prop-2-enoate]"
3,< 3 µM,"CC1=CC(O/C=C(/C#N)n2ncc3ccccc32)OC1=O (stereo not shown) [Compound I-43-Z, (Z)-2-indazol-1-yl-3-[(4-methyl-5-oxo-2H-furan-2-yl)oxy]prop-2-enenitrile]"
4,< 3 µM,"CCOC(=O)/C(=C/OC1C=C(C)C(=O)O1)n1c(=O)oc2ccccc21 (stereo not shown) [Compound I-68-Z, ethyl (Z)-3-[(4-methyl-5-oxo-2H-furan-2-yl)oxy]-2-(2-oxo-1,3-benzoxazol-3-yl)prop-2-enoate]"
5,< 3 µM,"CCOC(=O)/C(=C/OC1C=C(C)C(=O)O1)N1CCc2ccccc21 (stereo not shown) [Compound I-70-Z, ethyl (Z)-2-indolin-1-yl-3-[(4-methyl-5-oxo-2H-furan-2-yl)oxy]prop-2-enoate]"
6,< 3 µM,"CCOC(=O)/C(=C/OC1OC(=O)C(C)=C1C)n1ccc2cc(C(F)(F)F)ccc21 (stereo not shown) [Compound I-8-Z, ethyl (Z)-3-[(3,4-dimethyl-5-oxo-2H-furan-2-yl)oxy]-2-[5-(trifluoromethyl)indol-1-yl]prop-2-enoate]"
7,< 3 µM,"CCOC(=O)/C(=C/OC1C=C(C)C(=O)O1)N1C(=O)C2(CC2)c2ccccc21 (stereo not shown) [Compound I-66-Z, ethyl (Z)-3-[(4-methyl-5-oxo-2H-furan-2-yl)oxy]-2-(2′-oxospiro[cyclopropane-1,3′-indoline]-1′-yl)prop-2-enoate]"
8,< 3 µM,"CC1=C(C)C(O/C=C(\C#N)n2ncc3ccccc32)OC1=O (stereo not shown) [Compound I-47-E, (E)-3-[(3,4-dimethyl-5-oxo-2H-furan-2-yl)oxy]-2-indazol-1-yl-prop-2-enenitrile]"
9,< 3 µM,"CCOC(=O)/C(=C/OC1OC(=O)C(C)=C1C)n1nnc2ccccc21 (stereo not shown) [Compound I-35-Z, ethyl (Z)-2-(benzotriazol-1-yl)-3-[(3,4-dimethyl-5-oxo-2H-furan-2-yl)oxy]prop-2-enoate]"
10,< 3 µM,"CCOC(=O)/C(=C/OC1OC(=O)C(C)=C1C)n1cnc2ccccc21 (stereo not shown) [Compound I-57-Z, ethyl (Z)-2-(benzimidazol-1-yl)-3-[(3,4-dimethyl-5-oxo-2H-furan-2-yl)oxy]prop-2-enoate]"
11,< 3 µM,"CCOC(=O)/C(=C/OC1OC(=O)C(C)=C1C)n1nc(F)c2ccccc21 (stereo not shown) [Compound I-51-Z, ethyl (Z)-3-[(3,4-dimethyl-5-oxo-2H-furan-2-yl)oxy]-2-(3-fluoroindazol-1-yl)prop-2-enoate]"
12,< 3 µM,"CCOC(=O)/C(=C/OC1OC(=O)C(C)=C1C)N1C(=O)C2(CC2)c2ccccc21 (stereo not shown) [Compound I-67-Z, ethyl (Z)-3-[(3,4-dimethyl-5-oxo-2H-furan-2-yl)oxy]-2-(2′-oxospiro[cyclopropane-1,3′-indoline]-1′-yl)prop-2-enoate]"
13,< 3 µM,"CCOC(=O)/C(=C/OC1C=C(C)C(=O)O1)n1ccc2ccccc21 (stereo not shown) [Compound I-1-Z, ethyl (Z)-2-indol-1-yl-3-[(4-methyl-5-oxo-2H-furan-2-yl)oxy]prop-2-enoate]"
14,< 3 µM,"CC1=CC(O/C=C(/C(=O)N(C)C)n2nnc3ccccc32)OC1=O (stereo not shown) [Compound I-34-Z, (Z)-2-(benzotriazol-1-yl)-N,N-dimethyl-3-[(4-methyl-5-oxo-2H-furan-2-yl)oxy]prop-2-enamide]"
15,< 3 µM,"CCOC(=O)/C(=C/OC1C=C(C)C(=O)O1)n1nc(C)c(C)c1C (stereo not shown) [Compound I-80-Z, ethyl (Z)-3-[(4-methyl-5-oxo-2H-furan-2-yl)oxy]-2-(3,4,5-trimethylpyrazol-1-yl)prop-2-enoate]"
16,< 3 µM,"CCOC(=O)/C(=C/OC1C=C(C)C(=O)O1)N1CCc2cc(Br)ccc21 (stereo not shown) [Compound I-72-Z, ethyl (Z)-2-(5-bromoindolin-1-yl)-3-[(4-methyl-5-oxo-2H-furan-2-yl)oxy]prop-2-enoate]"
17,< 3 µM,"CCOC(=O)/C(=C/OC1C=C(C)C(=O)O1)n1cnc2c(N(C)C)nc(F)nc21 (stereo not shown) [Compound I-60-Z, ethyl (Z)-2-[6-(dimethylamino)-2-fluoro-purin-9-yl]-3-[(4-methyl-5-oxo-2H-furan-2-yl)oxy]prop-2-enoate]"
18,< 3 µM,"CCOC(=O)/C(=C/OC1C=C(C)C(=O)O1)n1cc(C)c2ccccc21 (stereo not shown) [Compound I-27-Z, ethyl (Z)-2-(3-methylindol-1-yl)-3-[(4-methyl-5-oxo-2H-furan-2-yl)oxy]prop-2-enoate]"
